Reference: ChEMBL document CHEMBL3763119, “Metal-based biologically active azoles and β-lactams derived from sulfa drugs” (Bioorg Med Chem, 2016)

Assays:
Staphylococcus aureus [1] = assay: Antibacterial activity against Staphylococcus aureus at 1 ug/ml by disc diffusion method; type: functional; conditions: read-out: DIZ
Proteus sp. [2] = assay: Antibacterial activity against Proteus sp. at 100 ug/ml by disc diffusion method; type: functional; conditions: Proteus sp. (in: enterobacteria); read-out: DIZ
Pseudomonas aeruginosa [3] = assay: Antibacterial activity against Pseudomonas aeruginosa at 1 ug/ml by disc diffusion method; type: functional; conditions: read-out: DIZ
Staphylococcus aureus [4] = assay: Antibacterial activity against Staphylococcus aureus at 100 ug/ml by disc diffusion method; type: functional; conditions: read-out: DIZ
[5] = Solubility of the compound in THF; type: physicochemical
Pseudomonas aeruginosa [6] = assay: Antibacterial activity against Pseudomonas aeruginosa at 10 ug/ml by disc diffusion method; type: functional; conditions: read-out: DIZ
Escherichia coli [7] = assay: Antibacterial activity against Escherichia coli at 1 ug/ml by disc diffusion method; type: functional; conditions: read-out: DIZ
Escherichia coli [8] = assay: Antibacterial activity against Escherichia coli at 50 ug/ml by disc diffusion method; type: functional; conditions: read-out: DIZ
Pseudomonas aeruginosa [9] = assay: Antibacterial activity against Pseudomonas aeruginosa at 50 ug/ml by disc diffusion method; type: functional; conditions: read-out: DIZ
Escherichia coli [10] = assay: Antibacterial activity against Escherichia coli at 100 ug/ml by disc diffusion method; type: functional; conditions: read-out: DIZ
Staphylococcus aureus [11] = assay: Antibacterial activity against Staphylococcus aureus at 50 ug/ml by disc diffusion method; type: functional; conditions: read-out: DIZ
Proteus sp. [12] = assay: Antibacterial activity against Proteus sp. at 50 ug/ml by disc diffusion method; type: functional; conditions: Proteus sp. (in: enterobacteria); read-out: DIZ
[13] = Solubility of the compound in ethanol; type: physicochemical
Proteus sp. [14] = assay: Antibacterial activity against Proteus sp. at 10 ug/ml by disc diffusion method; type: functional; conditions: Proteus sp. (in: enterobacteria); read-out: DIZ
Proteus sp. [15] = assay: Antibacterial activity against Proteus sp. at 1 ug/ml by disc diffusion method; type: functional; conditions: Proteus sp. (in: enterobacteria); read-out: DIZ
[16] = Solubility of the compound in dioxane; type: physicochemical
Pseudomonas aeruginosa [17] = assay: Antibacterial activity against Pseudomonas aeruginosa at 100 ug/ml by disc diffusion method; type: functional; conditions: read-out: DIZ
Escherichia coli [18] = assay: Antibacterial activity against Escherichia coli at 10 ug/ml by disc diffusion method; type: functional; conditions: read-out: DIZ
Staphylococcus aureus [19] = assay: Antibacterial activity against Staphylococcus aureus at 10 ug/ml by disc diffusion method; type: functional; conditions: read-out: DIZ
Proteus sp. [20] = assay: Antibacterial activity against Proteus sp. at 30 ug/ml by disc diffusion method; type: functional; conditions: Proteus sp. (in: enterobacteria); read-out: DIZ
Pseudomonas aeruginosa [21] = assay: Antibacterial activity against Pseudomonas aeruginosa at 5 ug/ml by disc diffusion method; conditions: read-out: DIZ
Escherichia coli [22] = assay: Antibacterial activity against Escherichia coli at 5 ug/ml by disc diffusion method; conditions: read-out: DIZ
Staphylococcus aureus [23] = assay: Antibacterial activity against Staphylococcus aureus at 5 ug/ml by disc diffusion method; conditions: read-out: DIZ
Staphylococcus aureus [24] = assay: Antibacterial activity against Staphylococcus aureus at 15 ug/ml by disc diffusion method; type: functional; conditions: read-out: DIZ
Escherichia coli [25] = assay: Antibacterial activity against Escherichia coli at 15 ug/ml by disc diffusion method; type: functional; conditions: read-out: DIZ
Pseudomonas aeruginosa [26] = assay: Antibacterial activity against Pseudomonas aeruginosa at 30 ug/ml by disc diffusion method; type: functional; conditions: read-out: DIZ
Staphylococcus aureus [27] = assay: Antibacterial activity against Staphylococcus aureus at 30 ug/ml by disc diffusion method; type: functional; conditions: read-out: DIZ
Escherichia coli [28] = assay: Antibacterial activity against Escherichia coli at 30 ug/ml by disc diffusion method; type: functional; conditions: read-out: DIZ

With COc1cccc(C2C(Cl)C(=O)N2c2ccc(S(=O)(=O)Nc3cc(C)on3)cc2)c1O (configuration not stated) the zone of inhibition at 1 µg/mL (Staphylococcus aureus [1]) was 7 mm, the zone of inhibition at 100 µg/mL (Proteus sp. [2]) was 12 mm and the zone of inhibition at 1 µg/mL (Pseudomonas aeruginosa [3]) was 6 mm. The zone of inhibition at 100 µg/mL (Staphylococcus aureus [4]) was 16 mm, the solubility [5] was “soluble” and the zone of inhibition at 10 µg/mL (Pseudomonas aeruginosa [6]) was 9 mm. For the same compound, the zone of inhibition at 1 µg/mL (Escherichia coli [7]) was 7 mm, the zone of inhibition at 50 µg/mL (Escherichia coli [8]) was 13 mm and the zone of inhibition at 50 µg/mL (Pseudomonas aeruginosa [9]) was 11 mm. The zone of inhibition at 100 µg/mL (Escherichia coli [10]) was 14 mm, the zone of inhibition at 50 µg/mL (Staphylococcus aureus [11]) was 11 mm and the zone of inhibition at 50 µg/mL (Proteus sp. [12]) was 12 mm. The solubility [13] was “soluble”, the zone of inhibition at 10 µg/mL (Proteus sp. [14]) was 10 mm and the zone of inhibition at 1 µg/mL (Proteus sp. [15]) was 6 mm. The solubility [16] was “soluble”, the zone of inhibition at 100 µg/mL (Pseudomonas aeruginosa [17]) was 13 mm and the zone of inhibition at 10 µg/mL (Escherichia coli [18]) was 9 mm. It also gave a zone of inhibition at 10 µg/mL (Staphylococcus aureus [19]) of 9 mm.

COc1cccc(/C=N/c2ccc(S(=O)(=O)Nc3cc(C)on3)cc2)c1O gave a zone of inhibition at 1 µg/mL (Staphylococcus aureus [1]) of 6 mm, a zone of inhibition at 100 µg/mL (Proteus sp. [2]) of 15 mm and a zone of inhibition at 1 µg/mL (Pseudomonas aeruginosa [3]) of 6 mm. The zone of inhibition at 100 µg/mL (Staphylococcus aureus [4]) was 12 mm, the solubility [5] was “soluble” and the zone of inhibition at 10 µg/mL (Pseudomonas aeruginosa [6]) was 10 mm. It also gave a zone of inhibition at 1 µg/mL (Escherichia coli [7]) of 6 mm, a zone of inhibition at 50 µg/mL (Escherichia coli [8]) of 11 mm and a zone of inhibition at 50 µg/mL (Pseudomonas aeruginosa [9]) of 11 mm. It also gave a zone of inhibition at 100 µg/mL (Escherichia coli [10]) of 14 mm, a zone of inhibition at 50 µg/mL (Staphylococcus aureus [11]) of 10 mm and a zone of inhibition at 50 µg/mL (Proteus sp. [12]) of 14 mm. For the same compound, the solubility [13] was “soluble”, the zone of inhibition at 10 µg/mL (Proteus sp. [14]) was 11 mm and the zone of inhibition at 1 µg/mL (Proteus sp. [15]) was 6 mm. For the same compound, the solubility [16] was “soluble”, the zone of inhibition at 100 µg/mL (Pseudomonas aeruginosa [17]) was 15 mm and the zone of inhibition at 10 µg/mL (Escherichia coli [18]) was 8 mm. It also gave a zone of inhibition at 10 µg/mL (Staphylococcus aureus [19]) of 8 mm.

Work on COc1cccc(/C=N/c2ccc(S(=O)(=O)Nc3nccs3)cc2)c1O yielded a zone of inhibition at 1 µg/mL (Staphylococcus aureus [1]) of 6 mm, a zone of inhibition at 100 µg/mL (Proteus sp. [2]) of 9 mm and a zone of inhibition at 100 µg/mL (Staphylococcus aureus [4]) of 14 mm. The solubility [5] was “soluble”, the zone of inhibition at 10 µg/mL (Pseudomonas aeruginosa [6]) was 8 mm and the zone of inhibition at 1 µg/mL (Escherichia coli [7]) was 6 mm. It also gave a zone of inhibition at 50 µg/mL (Escherichia coli [8]) of 12 mm, a zone of inhibition at 50 µg/mL (Pseudomonas aeruginosa [9]) of 10 mm and a zone of inhibition at 100 µg/mL (Escherichia coli [10]) of 15 mm. The zone of inhibition at 50 µg/mL (Staphylococcus aureus [11]) was 12 mm, the zone of inhibition at 50 µg/mL (Proteus sp. [12]) was 8 mm and the solubility [13] was “soluble”. For the same compound, the zone of inhibition at 10 µg/mL (Proteus sp. [14]) was 7 mm, the solubility [16] was “soluble” and the zone of inhibition at 100 µg/mL (Pseudomonas aeruginosa [17]) was 13 mm. The zone of inhibition at 10 µg/mL (Escherichia coli [18]) was 9 mm and the zone of inhibition at 10 µg/mL (Staphylococcus aureus [19]) was 9 mm.

Compound COc1cccc(C2C(Cl)C(=O)N2c2ccc(S(=O)(=O)Nc3nccs3)cc2)c1O (configuration not stated) has a zone of inhibition at 1 µg/mL (Staphylococcus aureus [1]) of 6 mm, a zone of inhibition at 100 µg/mL (Proteus sp. [2]) of 9 mm and a zone of inhibition at 100 µg/mL (Staphylococcus aureus [4]) of 16 mm. For the same compound, the solubility [5] was “soluble”, the zone of inhibition at 10 µg/mL (Pseudomonas aeruginosa [6]) was 6 mm and the zone of inhibition at 1 µg/mL (Escherichia coli [7]) was 6 mm. It also gave a zone of inhibition at 50 µg/mL (Escherichia coli [8]) of 12 mm, a zone of inhibition at 50 µg/mL (Pseudomonas aeruginosa [9]) of 9 mm and a zone of inhibition at 100 µg/mL (Escherichia coli [10]) of 13 mm. For the same compound, the zone of inhibition at 50 µg/mL (Staphylococcus aureus [11]) was 12 mm, the zone of inhibition at 50 µg/mL (Proteus sp. [12]) was 8 mm and the solubility [13] was “soluble”. The zone of inhibition at 10 µg/mL (Proteus sp. [14]) was 7 mm, the solubility [16] was “soluble” and the zone of inhibition at 100 µg/mL (Pseudomonas aeruginosa [17]) was 11 mm. The zone of inhibition at 10 µg/mL (Escherichia coli [18]) was 8 mm and the zone of inhibition at 10 µg/mL (Staphylococcus aureus [19]) was 8 mm.

For C[C@H]1[C@H](NC(=O)/C(=N\OC(C)(C)C(=O)O)c2csc(N)n2)C(=O)N1S(=O)(=O)O [AZTREONAM], the zone of inhibition at 30 µg/mL (Proteus sp. [20]) was 24 mm.

In the case of O=C(O)c1cn(C2CC2)c2cc(N3CCNCC3)c(F)cc2c1=O [CIPROFLOXACIN], the zone of inhibition at 5 µg/mL (Pseudomonas aeruginosa [21]) is reported as 17 mm, the zone of inhibition at 5 µg/mL (Escherichia coli [22]) is reported as 28 mm and the zone of inhibition at 5 µg/mL (Staphylococcus aureus [23]) is reported as 20 mm.

For CC[C@H]1OC(=O)[C@H](C)[C@@H](O[C@H]2C[C@@](C)(OC)[C@@H](O)[C@H](C)O2)[C@H](C)[C@@H](O[C@@H]2O[C@H](C)C[C@H](N(C)C)[C@H]2O)[C@](C)(OC)C[C@@H](C)C(=O)[C@H](C)[C@@H](O)[C@]1(C)O [CLARITHROMYCIN], the zone of inhibition at 15 µg/mL (Staphylococcus aureus [24]) was 23 mm and the zone of inhibition at 15 µg/mL (Escherichia coli [25]) was 16 mm.

CO[C@@H]1[C@@H](OC(N)=O)[C@@H](O)[C@H](Oc2ccc3c(O)c(NC(=O)c4ccc(O)c(CC=C(C)C)c4)c(=O)oc3c2C)OC1(C)C [NOVOBIOCIN] showed a zone of inhibition at 30 µg/mL (Proteus sp. [20]) of 20 mm, a zone of inhibition at 30 µg/mL (Pseudomonas aeruginosa [26]) of 14 mm and a zone of inhibition at 30 µg/mL (Staphylococcus aureus [27]) of 24 mm. It also gave a zone of inhibition at 30 µg/mL (Escherichia coli [28]) of 7 mm.

Cc1cc(NS(=O)(=O)c2ccc(N)cc2)no1 [SULFAMETHOXAZOLE] gave a zone of inhibition at 100 µg/mL (Proteus sp. [2]) of 9 mm, a zone of inhibition at 100 µg/mL (Staphylococcus aureus [4]) of 9 mm and a zone of inhibition at 10 µg/mL (Pseudomonas aeruginosa [6]) of 7 mm. For the same compound, the zone of inhibition at 50 µg/mL (Escherichia coli [8]) was 10 mm, the zone of inhibition at 50 µg/mL (Pseudomonas aeruginosa [9]) was 8 mm and the zone of inhibition at 100 µg/mL (Escherichia coli [10]) was 12 mm. For the same compound, the zone of inhibition at 50 µg/mL (Staphylococcus aureus [11]) was 8 mm, the zone of inhibition at 50 µg/mL (Proteus sp. [12]) was 8 mm and the zone of inhibition at 10 µg/mL (Proteus sp. [14]) was 7 mm. For the same compound, the zone of inhibition at 100 µg/mL (Pseudomonas aeruginosa [17]) was 10 mm, the zone of inhibition at 10 µg/mL (Escherichia coli [18]) was 8 mm and the zone of inhibition at 10 µg/mL (Staphylococcus aureus [19]) was 6 mm.

In the case of Nc1ccc(S(=O)(=O)Nc2nccs2)cc1 [SULFATHIAZOLE], the zone of inhibition at 1 µg/mL (Staphylococcus aureus [1]) is reported as 6 mm, the zone of inhibition at 100 µg/mL (Proteus sp. [2]) is reported as 11 mm and the zone of inhibition at 100 µg/mL (Staphylococcus aureus [4]) is reported as 15 mm. It also gave a zone of inhibition at 10 µg/mL (Pseudomonas aeruginosa [6]) of 7 mm, a zone of inhibition at 50 µg/mL (Escherichia coli [8]) of 10 mm and a zone of inhibition at 50 µg/mL (Pseudomonas aeruginosa [9]) of 8 mm. It also gave a zone of inhibition at 100 µg/mL (Escherichia coli [10]) of 11 mm, a zone of inhibition at 50 µg/mL (Staphylococcus aureus [11]) of 13 mm and a zone of inhibition at 50 µg/mL (Proteus sp. [12]) of 10 mm. The zone of inhibition at 10 µg/mL (Proteus sp. [14]) was 8 mm, the zone of inhibition at 100 µg/mL (Pseudomonas aeruginosa [17]) was 9 mm and the zone of inhibition at 10 µg/mL (Escherichia coli [18]) was 7 mm. For the same compound, the zone of inhibition at 10 µg/mL (Staphylococcus aureus [19]) was 10 mm.
